Measurements as given in PubChem BioAssay AID256 (DTP/NCI, 2004).
Values joined by “and” are separate entries in the source; they are usually repeats but may differ in a detail not shown here. Equal values may be shown once. Toxic doses and inconclusive results are not listed. How the source made its calls: active means survival T/C of 150% or more; inactive means T/C below 125% in these data.

Test system: CD2F1 mice, L1210 leukemia ip, survival T/C
Assay: NCI In Vivo Anticancer Drug Screen. Data for tumor model L1210 Leukemia (intraperitoneal) in CD2F1 (CDF1) mice
Settings: higher = longer survival
How it was run: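 Each value reflects a quotient of treated over vehicle control outcomes in mice with a transplanted tumor.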

Measured: T/C

CC(C)[C@]12O[C@H]1[C@@H]1O[C@]13[C@]1(O[C@H]1C[C@H]1C4=C(C(=O)OC4)[C@@H](O)C[C@@]13C)[C@@H]2O
active: endpoint: mean survival time, dose: 200.0 micrograms/kg/injection, schedule: Q01DX009 (ip), vehicle: saline + alcohol 156 % of control | endpoint: mean survival time, dose: 250.0 micrograms/kg/injection, schedule: Q01DX009 (ip), vehicle: saline + alcohol 188 % of control | endpoint: mean survival time, dose: 400.0 micrograms/kg/injection, schedule: Q01DX009 (ip), vehicle: saline + alcohol 207 % of control | endpoint: median survival time, dose: 31.2 micrograms/kg/injection, schedule: Q03HX024 (ip), vehicle: saline + alcohol 151 % of control | endpoint: median survival time, dose: 60.0 micrograms/kg/injection, schedule: Q03HX024 (ip), vehicle: saline 191 % of control | endpoint: median survival time, dose: 62.5 micrograms/kg/injection, schedule: Q03HX024 (ip), vehicle: saline + alcohol 166 % of control | endpoint: median survival time, dose: 130.0 micrograms/kg/injection, schedule: Q01DX009 (ip), vehicle: saline 151 % of control | endpoint: median survival time, dose: 250.0 micrograms/kg/injection, schedule: Q01DX009 (ip), vehicle: saline + alcohol 184 % of control | endpoint: median survival time, dose: 250.0 micrograms/kg/injection, schedule: Q01DX009 (ip), vehicle: saline 203 % of control | endpoint: median survival time, dose: 250.0 micrograms/kg/injection, schedule: Q01DX009 (sc), vehicle: saline 152 % of control | endpoint: median survival time, dose: 500.0 micrograms/kg/injection, schedule: Q01DX009 (ip), vehicle: saline + alcohol 239 % of control | endpoint: median survival time, dose: 500.0 micrograms/kg/injection, schedule: Q01DX009 (ip), vehicle: saline 255 % of control | endpoint: median survival time, dose: 500.0 micrograms/kg/injection, schedule: Q01DX009 (sc), vehicle: saline + alcohol 193 % of control
inactive: endpoint: mean survival time, dose: 0.8 micrograms/kg/injection, schedule: Q01DX009 (ip), vehicle: saline + alcohol 94 % of control | endpoint: mean survival time, dose: 1.6 micrograms/kg/injection, schedule: Q01DX009 (ip), vehicle: saline + alcohol 92 % of control | endpoint: mean survival time, dose: 3.1 micrograms/kg/injection, schedule: Q01DX009 (ip), vehicle: saline + alcohol 96 % of control | endpoint: mean survival time, dose: 6.3 micrograms/kg/injection, schedule: Q01DX009 (ip), vehicle: saline + alcohol 92 % of control | endpoint: mean survival time, dose: 12.5 micrograms/kg/injection, schedule: Q01DX009 (ip), vehicle: saline + alcohol 89 % of control | endpoint: mean survival time, dose: 25.0 micrograms/kg/injection, schedule: Q01DX009 (ip), vehicle: saline + alcohol 93 % of control | endpoint: mean survival time, dose: 32.0 micrograms/kg/injection, schedule: Q01DX009 (ip), vehicle: saline + alcohol 106 % of control | endpoint: mean survival time, dose: 50.0 micrograms/kg/injection, schedule: Q01DX009 (ip), vehicle: saline + alcohol 107 % of control | endpoint: mean survival time, dose: 63.0 micrograms/kg/injection, schedule: Q01DX009 (ip), vehicle: saline + alcohol 121 % of control | endpoint: mean survival time, dose: 100.0 micrograms/kg/injection, schedule: Q01DX009 (ip), vehicle: saline + alcohol 115 % of control | endpoint: mean survival time, dose: 500.0 micrograms/kg/injection, schedule: Q01DX009 (ip), vehicle: saline + alcohol 93 % of control | endpoint: median survival time, dose: 8.0 micrograms/kg/injection, schedule: Q03HX024 (ip), vehicle: saline + alcohol 111 % of control | endpoint: median survival time, dose: 8.0 micrograms/kg/injection, schedule: Q03HX024 (ip), vehicle: saline 110 % of control | endpoint: median survival time, dose: 16.0 micrograms/kg/injection, schedule: Q03HX016 (ip), vehicle: saline + alcohol 117 % of control | endpoint: median survival time, dose: 30.0 micrograms/kg/injection, schedule: Q01DX009 (ip), vehicle: saline 109 % of control | endpoint: median survival time, dose: 30.0 micrograms/kg/injection, schedule: Q01DX009 (sc), vehicle: saline 103 % of control | endpoint: median survival time, dose: 31.2 micrograms/kg/injection, schedule: Q01DX009 (ip), vehicle: saline + alcohol 101 % of control | endpoint: median survival time, dose: 31.2 micrograms/kg/injection, schedule: Q01DX009 (sc), vehicle: saline + alcohol 98 % of control | endpoint: median survival time, dose: 60.0 micrograms/kg/injection, schedule: Q01DX009 (sc), vehicle: saline 102 % of control | endpoint: median survival time, dose: 62.0 micrograms/kg/injection, schedule: Q03HX008 (ip), vehicle: saline + alcohol 123 % of control | endpoint: median survival time, dose: 62.5 micrograms/kg/injection, schedule: Q01DX009 (ip), vehicle: saline + alcohol 122 % of control | endpoint: median survival time, dose: 62.5 micrograms/kg/injection, schedule: Q01DX009 (sc), vehicle: saline + alcohol 104 % of control | endpoint: median survival time, dose: 62.5 micrograms/kg/injection, schedule: Q03HX016 (ip), vehicle: saline + alcohol 118 % of control | endpoint: median survival time, dose: 62.5 micrograms/kg/injection, schedule: Q04DX003 (ip), vehicle: saline + alcohol 97 % of control | endpoint: median survival time, dose: 125.0 micrograms/kg/injection, schedule: Q01DX009 (sc), vehicle: saline + alcohol 104 % of control | endpoint: median survival time, dose: 125.0 micrograms/kg/injection, schedule: Q03HX008 (ip), vehicle: saline + alcohol 118 % of control | endpoint: median survival time, dose: 125.0 micrograms/kg/injection, schedule: Q03HX016 (ip), vehicle: saline + alcohol 111 % of control | endpoint: median survival time, dose: 125.0 micrograms/kg/injection, schedule: Q03HX024 (ip), vehicle: saline + alcohol 120 % of control | endpoint: median survival time, dose: 125.0 micrograms/kg/injection, schedule: Q04DX003 (ip), vehicle: saline + alcohol 101 % of control | endpoint: median survival time, dose: 125.0 micrograms/kg/injection, schedule: Q08DX002 (ip), vehicle: saline + alcohol 98 % of control | endpoint: median survival time, dose: 130.0 micrograms/kg/injection, schedule: Q01DX009 (sc), vehicle: saline 109 % of control | endpoint: median survival time, dose: 250.0 micrograms/kg/injection, schedule: Q01DX001 (ip), vehicle: saline + alcohol 113 % of control | endpoint: median survival time, dose: 250.0 micrograms/kg/injection, schedule: Q01DX001 (sc), vehicle: saline + alcohol 104 % of control | endpoint: median survival time, dose: 250.0 micrograms/kg/injection, schedule: Q04DX003 (ip), vehicle: saline + alcohol 113 % of control | endpoint: median survival time, dose: 250.0 micrograms/kg/injection, schedule: Q08DX002 (ip), vehicle: saline + alcohol 109 % of control | endpoint: median survival time, dose: 500.0 micrograms/kg/injection, schedule: Q01DX001 (ip), vehicle: saline + alcohol 109 % of control | endpoint: median survival time, dose: 500.0 micrograms/kg/injection, schedule: Q01DX001 (sc), vehicle: saline + alcohol 107 % of control | endpoint: median survival time, dose: 500.0 micrograms/kg/injection, schedule: Q01DX009 (sc), vehicle: saline 87 % of control | endpoint: median survival time, dose: 500.0 micrograms/kg/injection, schedule: Q04DX003 (ip), vehicle: saline + alcohol 122 % of control | endpoint: median survival time, dose: 500.0 micrograms/kg/injection, schedule: Q08DX002 (ip), vehicle: saline + alcohol 108 % of control | endpoint: median survival time, dose: 1000.0 micrograms/kg/injection, schedule: Q01DX001 (ip), vehicle: saline + alcohol 109 % of control | endpoint: median survival time, dose: 1000.0 micrograms/kg/injection, schedule: Q04DX003 (ip), vehicle: saline + alcohol 115 % of control | endpoint: median survival time, dose: 1000.0 micrograms/kg/injection, schedule: Q08DX002 (ip), vehicle: saline + alcohol 97 % of control

CN1CCN(Cc2cn(C3CC(O)C(CO)O3)c(=O)[nH]c2=O)c2ccccc21 (centres undefined)
inactive: endpoint: mean survival time, dose: 12.5 mg/kg/injection, schedule: Q01DX005 (ip), vehicle: distilled water + Tween-80 93 % of control | endpoint: mean survival time, dose: 25.0 mg/kg/injection, schedule: Q01DX005 (ip), vehicle: distilled water + Tween-80 93 % of control | endpoint: mean survival time, dose: 50.0 mg/kg/injection, schedule: Q01DX005 (ip), vehicle: distilled water + Tween-80 93 % of control | endpoint: mean survival time, dose: 100.0 mg/kg/injection, schedule: Q01DX005 (ip), vehicle: distilled water + Tween-80 103 % of control | endpoint: mean survival time, dose: 200.0 mg/kg/injection, schedule: Q01DX005 (ip), vehicle: distilled water + Tween-80 93 % of control

CCN(CC)C(=S)SCn1ncc2ccc([N+](=O)[O-])cc21
inactive: endpoint: mean survival time, dose: 100.0 mg/kg/injection, schedule: Q01DX001 (ip), vehicle: saline 95 % of control | endpoint: mean survival time, dose: 200.0 mg/kg/injection, schedule: Q01DX001 (ip), vehicle: saline 92 % of control | endpoint: mean survival time, dose: 400.0 mg/kg/injection, schedule: Q01DX001 (ip), vehicle: saline 89 % of control

COc1ccc(C(O)C(C)c2ccc([N+](=O)[O-])cc2)cc1 (centres undefined)
inactive: endpoint: mean survival time, dose: 100.0 mg/kg/injection, schedule: Q01DX001 (ip), vehicle: saline with Tween-80 106 % of control | endpoint: mean survival time, dose: 100.0 mg/kg/injection, schedule: Q01DX009 (ip), vehicle: saline with Tween-80 105 % of control | endpoint: mean survival time, dose: 200.0 mg/kg/injection, schedule: Q01DX001 (ip), vehicle: saline with Tween-80 93 % of control | endpoint: mean survival time, dose: 200.0 mg/kg/injection, schedule: Q01DX009 (ip), vehicle: saline with Tween-80 103 % of control | endpoint: mean survival time, dose: 400.0 mg/kg/injection, schedule: Q01DX001 (ip), vehicle: saline with Tween-80 98 % of control | endpoint: mean survival time, dose: 400.0 mg/kg/injection, schedule: Q01DX009 (ip), vehicle: saline with Tween-80 94 % of control

CC(C)[NH-].CC(C)[NH-].[Cl][Pt+2][Cl]
inactive: endpoint: mean survival time, dose: 1.56 mg/kg/injection, schedule: Q01DX009 (ip), vehicle: dextrose 119 % of control | endpoint: mean survival time, dose: 1.56 mg/kg/injection, schedule: Q01DX009 (ip), vehicle: other 112 % of control | endpoint: mean survival time, dose: 3.12 mg/kg/injection, schedule: Q01DX009 (ip), vehicle: other 118 % of control | endpoint: mean survival time, dose: 3.13 mg/kg/injection, schedule: Q04DX003 (ip), vehicle: distilled water + Tween-80 112 % of control | endpoint: mean survival time, dose: 6.25 mg/kg/injection, schedule: Q01DX009 (ip), vehicle: dextrose 100 % of control | endpoint: mean survival time, dose: 6.25 mg/kg/injection, schedule: Q04DX003 (ip), vehicle: distilled water + Tween-80 115 % of control | endpoint: mean survival time, dose: 12.5 mg/kg/injection, schedule: Q01DX009 (ip), vehicle: dextrose 98 % of control and 112 % of control | endpoint: mean survival time, dose: 50.0 mg/kg/injection, schedule: Q01DX009 (ip), vehicle: other 88 % of control | endpoint: mean survival time, dose: 50.0 mg/kg/injection, schedule: Q04DX003 (ip), vehicle: distilled water + Tween-80 118 % of control
